Source: patent US10370436B2, “Anti-pseudomonas Psl binding molecules and uses thereof” (priority 2011, dated 2019)

System: P. aeruginosa PAO1 cells
Test: Flow cytometry (FACS) whole cell binding
Design: species or system Pseudomonas aeruginosa
Settings: PAO1ΔpslA; FIG. 3C
Source text: For IgG expression, the VH and VL chains of selected antibodies were cloned into human IgG1 expression vectors, co-expressed in HEK293 cells, and purified by protein A affinity chromatography as described (Persic, L., et al., Gene 187, 9-18 (1997)). Human IgG1 antibodies made with the variable regions from these selected serotype independent phage were confirmed for P. aeruginosa specificity and prioritized for subsequent analysis by whole cell binding to dominant clinically relevant serotypes by FACS analysis (FIG. 1F), since this method is more stringent than ELISA. For the flow cytometry based binding assays mid-log phase P. aeruginosa strains were concentrated in PBS to an OD650 of 2.0. […] Samples were run on a LSR II flow cytometer (BD Biosciences) and analyzed using BD FacsDiva (v. 6.1.3) and FlowJo (v. 9.2; TreeStar).
CAM-003 is specific for the P. aeruginosa Psl surface exopolysaccharide and mediates potent OPK activity and protection in multiple in vivo models. […] Conjugation efficiency of PMB-mAbs variants was determined by mass spectrometry analysis of heavy chains in purified conjugates. […] Contamination with free PMB in the purified preparations was determined to be negligible. Binding of PMB-Cam-003 and PMB-A7 conjugates to P. aeruginosa PAO1 cells was evaluated by FACS. […] Samples were stained and analyzed as previously described in Example 1. […]

“Cam-003: human IgG1 anti-Psl monoclonal antibody, VH SEQ ID NO: 1 and VL SEQ ID NO: 2” was tested, and the FACS binding was “abolished”.
